Data taken from the NIST ThermoML archive (doi:10.1016/j.tca.2015.01.022).

Key:
[1] = for molar entropy: 101.33 kPa, Small (less than 1 g) adiabatic calorimetry
[2] = Molar enthalpy of transition or fusion; conditions: Crystal; Adiabatic calorimetry

CCCCn1cc[n+](C)c1.F[B-](F)(F)F [1-butyl-3-methylimidazolium tetrafluoroborate]
Conditions | Glass transition temperature [°C]
[1], Glass, Adiabatic calorimetry | -92

CCOS(=O)(=O)[O-].CCn1cc[n+](C)c1 [1-ethyl-3-methylimidazolium ethyl sulfate]
Conditions | Glass transition temperature [°C]
[1], Glass, Adiabatic calorimetry | -88

CCCCCCCC[n+]1ccn(C)c1.F[B-](F)(F)F [1-methyl-3-octylimidazolium tetrafluoroborate]
[1]
Conditions | Glass transition temperature [°C] | Triple point temperature [K] | molar entropy [J/K/mol]
0 K, Glass | – | – | 13.9
5 K, Crystal | – | – | 0.507
5 K, Glass | – | – | 14.5
10 K, Crystal | – | – | 3.61
10 K, Glass | – | – | 18
15 K, Crystal | – | – | 9.69
15 K, Glass | – | – | 24.5
20 K, Crystal | – | – | 17.96
20 K, Glass | – | – | 33.1
25 K, Crystal | – | – | 27.66
25 K, Glass | – | – | 43.1
30 K, Crystal | – | – | 38.29
30 K, Glass | – | – | 54.1
35 K, Crystal | – | – | 49.44
35 K, Glass | – | – | 65.5
40 K, Crystal | – | – | 60.82
40 K, Glass | – | – | 77.1
45 K, Crystal | – | – | 72.28
45 K, Glass | – | – | 88.7
50 K, Crystal | – | – | 83.73
50 K, Glass | – | – | 100.3
60 K, Crystal | – | – | 106.3
60 K, Glass | – | – | 123.1
70 K, Crystal | – | – | 128.1
70 K, Glass | – | – | 145.2
80 K, Crystal | – | – | 149.2
80 K, Glass | – | – | 166.7
90 K, Crystal | – | – | 169.5
90 K, Glass | – | – | 187.6
100 K, Crystal | – | – | 189.1
100 K, Glass | – | – | 207.9
110 K, Crystal | – | – | 208
110 K, Glass | – | – | 227.7
120 K, Crystal | – | – | 226.3
120 K, Glass | – | – | 247
130 K, Crystal | – | – | 244.2
130 K, Glass | – | – | 265.9
140 K, Crystal | – | – | 261.5
140 K, Glass | – | – | 284.4
150 K, Crystal | – | – | 278.4
150 K, Glass | – | – | 302.8
160 K, Crystal | – | – | 295
160 K, Glass | – | – | 320.9
170 K, Crystal | – | – | 311.3
170 K, Glass | – | – | 338.9
180 K, Crystal | – | – | 327.5
180 K, Glass | – | – | 356.9
190 K, Crystal | – | – | 343.6
190 K, Glass | – | – | 375.5
200 K, Crystal | – | – | 359.6
200 K, Liquid | – | – | 398.7
210 K, Crystal | – | – | 375.6
210 K, Liquid | – | – | 421.4
220 K, Crystal | – | – | 391.5
220 K, Liquid | – | – | 442.9
230 K, Crystal | – | – | 407.4
230 K, Liquid | – | – | 463.6
240 K, Crystal | – | – | 423.2
240 K, Liquid | – | – | 483.5
245.81 K, Crystal | – | – | 432.4
245.81 K, Liquid | – | – | 494.7
250 K, Liquid | – | – | 502.7
260 K, Liquid | – | – | 521.3
270 K, Liquid | – | – | 539.4
280 K, Liquid | – | – | 557
290 K, Liquid | – | – | 574.3
298.15 K, Liquid | – | – | 588
300 K, Liquid | – | – | 591.1
310 K, Liquid | – | – | 607.5
320 K, Liquid | – | – | 623.7
330 K, Liquid | – | – | 639.5
340 K, Liquid | – | – | 655
350 K, Liquid | – | – | 670.3
360 K, Liquid | – | – | 685.3
370 K, Liquid | – | – | 700.1
Crystal, Adiabatic calorimetry | – | 245.81 | –
Glass, Adiabatic calorimetry | -83 | – | –

Conditions | Molar enthalpy of transition or fusion [kcal/mol]
[2] | 3.659
